Source: ChEMBL document CHEMBL3860030, “Design, synthesis and biological evaluation of novel macrocyclic bisbibenzyl analogues as tubulin polymerization inhibitors” (Eur J Med Chem, 2016)
Where a name gives a salt, the structure may show the parent alone. Blank lines part the entries; values can stand above or below the compound they belong to. Calls of active or inactive are those of the source. The calls are words filed in the database; no cut-off is given here.

What was measured:
[1] = organism: Bos taurus; assay: Induction of bovine brain tubulin polymerization at 5 uM measured every minute for 1 hr by spectrophotometric method
[2] = organism: Bos taurus; assay: Inhibition of bovine brain tubulin polymerization at 5 uM measured every minute for 1 hr by spectrophotometric method
[3] = tested on: HCC1428; assay: Cytotoxicity against human HCC1428 cells assessed as decrease in cell viability at 1 uM after 60 hrs by xCELLigence system; type: functional, cell-based
[4] = Cytotoxicity against human HT-29 cells assessed as decrease in cell viability after 48 hrs by MTT assay; type: functional, cell-based; conditions: HT-29, 48 h
[5] = cells; conditions: Homo sapiens, HeLa, 48 h
Description: Cytotoxicity against human HeLa cells assessed as decrease in cell viability after 48 hrs by MTT assay

[6] = Cytotoxicity against docetaxel-resistant human PC3 cells assessed as decrease in cell viability after 48 hrs by MTT assay; type: functional, cell-based; conditions: PC-3, 48 h
[7] = Cytotoxicity against human HCC1428 cells assessed as decrease in cell viability after 48 hrs by MTT assay; type: functional, cell-based; conditions: HCC1428, 48 h

Activity [1]: Active
SMILES: CC(=O)O[C@H]1C(=O)[C@@]2(C)[C@H]([C@H](OC(=O)c3ccccc3)[C@]3(O)C[C@H](OC(=O)[C@H](O)[C@@H](NC(=O)c4ccccc4)c4ccccc4)C(C)=C1C3(C)C)[C@]1(OC(C)=O)CO[C@@H]1C[C@@H]2O

inhibition [2]: Active
SMILES: CC[C@]1(O)C[C@H]2CN(CCc3c([nH]c4ccccc34)[C@@](C(=O)OC)(c3cc4c(cc3OC)N(C=O)[C@H]3[C@@](O)(C(=O)OC)[C@H](OC(C)=O)[C@]5(CC)C=CCN6CC[C@]43[C@@H]65)C2)C1
Activity [3]: Active

IC50 [5]: 1060 nM
SMILES: COc1cccc2c1C(=O)c1c(O)c3c(c(O)c1C2=O)C[C@@](O)(C(=O)CO)C[C@@H]3O[C@H]1C[C@H](N)[C@H](O)[C@H](C)O1 [DOXORUBICIN HYDROCHLORIDE]
IC50 [4]: 1460 nM | IC50 [6]: 15.2 µM | IC50 [7]: 1560 nM
